“Also recorded” adds a separate entry of the source.
Assays:
[1] = biological target: recombinant TET-2 protein (Homo sapiens, UniProt Q6N021); assay: Fluorescence quenching of recombinant TET-2 protein (Stern-Volmer); assay type: binding
Description: The step width was 1 nm, and the integration time was 1 second.
All protein solutions contained 0.5 μM TET2 in PBS buffer.
In this equation, KD was the quenching constant, and [Q] was a defined concentration of ascorbic acid. F^0 and F were the fluorescence intensities (at 328 nm) in absence and presence of ascorbic acid, respectively.

[2] = system: RCC cells (786O) xenografted; assay: In vivo xenograft study with AA; parameters: species or system immunodeficient NSG mice; conditions: IV AA 1 g/kg per day, 5 days/week, 5 weeks, vs vehicle; n=10 per cohort
Description: RCC cells (786O) were xenografted into immunodeficient NSG mice. After tumors were established, treatment was initiated with tail vein injections: IV AA at 1 g/kg/d or vehicle over 5 weeks (5 days dosing/week), and tumor measurements were conducted.

[3] = system: 786-O cells; assay: Flow cytometry for apoptosis (Annexin V/PI); assay type: cell-based; conditions: AA 1 mM + catalase, assay at 96 hour time point
Description: (§1) 786-O cells were treated with high dose ascorbic acid (+catalase), and apoptosis and cell cycle dynamics were studied at the 96 hour time point. Cells were washed with Annexin buffer solution and stained with both propidium iodide (PI) and FITC-Annexin V (Life Technologies), and assayed on a BD FACS Calibur flow cytometer (BD Biosciences). Apoptosis results were analyzed with BD CellQuest software. For cell cycle analysis, cells were fixed with 70% cold ethanol and subsequently analyzed after PI staining. Analysis was performed using FlowJo software.

[4] = system: RCC cells 769P; assay: Measurement of 5hmC levels by LC-ESI-MS/MS; assay type: cell-based; conditions: 769P cells after AA treatment
[5] = system: RCC (786O) cells; assay: Cell viability (Cell Titer Blue); assay type: cell-based
Description: Cells were incubated at varying concentrations and at various time periods with L-ascorbic acid (Sigma-Aldrich, Cat #50-81-7) with or without catalase at 100 μg/mL (Sigma-Aldrich, Cat #9001-05-2). Viability was assessed by addition of Cell Titer Blue (Promega, Madison, Wis., USA) and measured via Fluostar Omega Microplate reader (BMG Labtech, Offenburg, Germany). […] A protocol modification to counter this interference was done as described elsewhere (Shenoy et al., Laboratory Investigation, 97:494-497 (2017)) and used in this study.

[6] = system: TET enzymatic activity in RCC cells (769P and 7860); assay: In-vitro TET enzymatic activity of nuclear extracts from AA treated RCC cells (ELISA-based Epigenase 5mC Hydroxylase TET Activity kit); conditions: pH neutralized AA, ccRCC cell lines 769P and 7860, short exposure then 24 hour incubation in fresh media
Description: Cells were treated with different concentrations of pH neutralized AA, with or without catalase. Exposure time to 1 mM AA was 2 hours (taking into account the plasma concentration curve with intravenous (i.v.) AA and potential differences between plasma concentrations with that of tumor microenvironment) followed by the cells being washed and incubated in fresh media for 24 hours. Nuclear protein was then isolated from cells using the EpiQuik nuclear extraction kit (Epigentek Group Inc, Farmingdale, N.Y., USA), according to the manufacturer's instructions. TET enzymatic activity was measured by using the Enzyme Linked ImmunoSorbent Assay (ELISA)-based Epigenase 5mC Hydroxylase TET Activity/Inhibition Assay Kit (Fluorometric) according to the manufacturer's instructions. This technique relied on the conversion of methylated products at the bottom of the wells to hydroxymethylated products by the TET enzyme present in the nuclear extract. Thus, the amount of hydroxymethylated products formed was a measure of the TET activity of the nuclear extract harvested from the cells being tested. Incubation time of nuclear lysates was 90 minutes. Six micrograms of nuclear lysate was used per well for measurement of TET activity.

[7] = system: 786-O cells; assay: Flow cytometry for cell cycle analysis (PI); assay type: cell-based; conditions: high dose AA + catalase, 96 hours
Description: as §1

[8] = system: ccRCC cells (786 and 769); assay: Genome wide DNA methylation analysis using the HELP assay; assay type: cell-based, human
Description: The HELP assay was carried out as described elsewhere ([…] et al., Nucleic Acids Res., 41(16):e157 (2013)). Intact DNA of high molecular weight was corroborated by electrophoresis on 1% agarose gel in all cases. One microgram of genomic DNA was digested overnight with either HpaII or MspI (NEB, Ipswich, Mass.). The following day, the reactions were extracted once with phenol-chloroform and resuspended in 11 μL of 10 mM Tris-HCl pH 8.0. The digested DNA was used to set up an overnight ligation of the JHpaII adapter using T4 DNA ligase. The adapter-ligated DNA was used to carry out the PCR amplification of the HpaII and MspI-digested DNA as described elsewhere ([…] et al., Nucleic Acids Res., 41(16):e157 (2013)). Both amplified fractions were submitted for labeling and hybridization onto a human hg18 custom-designed oligonucleotide array (50-mers) covering 1.3 million HpaII amplifiable fragments (HAF). All microarray hybridizations were subjected to extensive quality control. Uniformity of hybridization was evaluated using a modified version of an algorithm adapted for the NimbleGen platform, and any hybridization with strong regional artifacts was discarded. Bioinformatic analysis was done as described elsewhere (Bhattacharyya et al., Nucleic Acids Res., 41(16):[…] (2013); Suzuki et al., Genome Biol., 11(4):[…] (2010)).

[9] = 0.5 μM TET-2 alone in PBS, 20° C.

quenching efficiency (Stern-Volmer constant +/−SD) [1, 9] [M⁻¹]	quenching efficiency (Stern-Volmer constant +/−SD) ([1]; 0.5 μM TET-2 in presence of 23 μM 2OG) [M⁻¹]	quenching efficiency (Stern-Volmer constant +/−SD) ([1]; 0.5 μM TET-2 in presence of 2OG and L2HG (23 μM each per FIG. 5D legend)) [M⁻¹]	quenching efficiency (Stern-Volmer constant +/−SD) ([1]; 0.5 μM TET-2 in presence of L2HG (100 μM per FIG. 5D legend)) [M⁻¹]	reduction of the fluorescence emission signal ([1]; 132 μM AA, 0.5 μM TET-2, emission at 328 nm, excitation 280 nm, maximal quenching) [%]	Structure (SMILES)	tumor growth [2]	apoptosis [3]	5hmC (%5hmC) by LC-ESI-MS/MS [4]	viability, acute (short term exposure) ([5]; high dose AA (millimolar), 24 hours, without catalase)	viability at longer time points ([5]; high dose AA with catalase, longer-term exposure)	acute loss in viability with catalase co-treatment ([5]; high dose AA, 24 hours, with catalase 100 μg/mL)	TET enzymatic activity [6]	cell cycle (G0/G1 arrest) [7]	Smad6 promoter methylation ([8]; 786 and 769 ccRCC cells after AA treatment)	global cytosine methylation (HELP assay) ([8]; AA treated vs control ccRCC cells)
15.66 ± 0.12	–	–	–	–	O=C(O)CCC(=O)C(=O)O [2OG]	–	–	–	–	–	–	–	–	–	–
21.46 ± 0.70	18.37 ± 0.80	17.34 ± 0.87	22.17 ± 0.68	90	O=C1O[C@H]([C@@H](O)CO)C(O)=C1O [AA, L-ascorbic acid]	significantly reduced rate of ccRCC growth; also recorded: significantly delayed tumor growth	increased apoptosis; also recorded: significant increase in apoptosis	significantly increased; also recorded: increase in 5hmC	Acute loss in viability	reduced viability; also recorded: dose dependent and progressive loss of viability	reversed by catalase treatment	increased after treatment; also recorded: increase in TET enzymatic activity	significantly arrested in G0/G1 stage; also recorded: significant increase in G0/G1 arrest	demethylated	increased hypomethylation; also recorded: loss of methylation
